US9290515B2, “Cephem derivative having catechol group” (SHIONOGI & CO., LTD., priority 2011, dated 2016)
Values after ≈ are worked out from the molar mass of the structure shown. Like-named read-outs stand apart in the source and are kept apart here.

Tests used:
Assay type in all cases: cell-based
[1] = tested on: K. pneumoniae ATCC 700603_SHV18; experiment: MIC by broth microdilution (CLSI), K. pneumoniae ATCC 700603; details: Klebsiella pneumoniae
Protocol: (§1) Measurement of a minimum growth inhibition concentration (MIC: μg/mL) was performed according to CLSI (Clinical and Laboratory Standards Institute) method, by broth microdilution method, using an inoculation microbe amount of 10000 cfu/well and cation-adjusted Mueller Hinton broth containing human-derived 20 μM apo-transferrin as a test medium.

[2] = tested on: P. aeruginosa SR27001(MDRP, IMP-1+); experiment: MIC by broth microdilution (CLSI), P. aeruginosa SR27001; details: Pseudomonas aeruginosa, read-out: minimum growth inhibition concentration (MIC)
Protocol: as §1

P. aeruginosa SR24 = experiment: MIC by broth microdilution (CLSI), P. aeruginosa SR24; details: Pseudomonas aeruginosa
Protocol: as §1

[3] = tested on: P. aeruginosa SR27060(metallo); experiment: MIC by broth microdilution (CLSI), P. aeruginosa SR27060; details: Pseudomonas aeruginosa; P. aeruginosa SR27060, IMP-1, MBL producing carbapenem-resistant strain; 10000 cfu/well; cation-adjusted Mueller Hinton broth with 20 μM human apo-transferrin; read-out: minimum growth inhibition concentration (MIC)
Protocol: as §1

[4] = tested on: E. coli ATCC BAA-196_TEM-10; experiment: MIC by broth microdilution (CLSI), E. coli ATCC BAA-196; details: Escherichia coli
Protocol: as §1

A. baumannii SR24396 = experiment: MIC by broth microdilution (CLSI), A. baumannii SR24396; details: Acinetobacter baumannii, 10000 cfu/well, cation-adjusted Mueller Hinton broth with 20 μM human apo-transferrin, read-out: minimum growth inhibition concentration (MIC)
Protocol: as §1

[5] = ATCC700603, K. pneumoniae ATCC 700603, SHV-18, ESBL producing strain, 10000 cfu/well, cation-adjusted Mueller Hinton broth with 20 μM human apo-transferrin, read-out: minimum growth inhibition concentration (MIC)
[6] = P. aeruginosa SR27001, MDRP, IMP-1, MBL producing carbapenem-resistant strain, 10000 cfu/well, cation-adjusted Mueller Hinton broth with 20 μM human apo-transferrin
[7] = P. aeruginosa SR24, Ceftazidime-sensitive strain, 10000 cfu/well, cation-adjusted Mueller Hinton broth with 20 μM human apo-transferrin, read-out: minimum growth inhibition concentration (MIC)
[8] = ATCCBAA196, E. coli ATCC BAA-196, TEM-10, ESBL producing strain, 10000 cfu/well, cation-adjusted Mueller Hinton broth with 20 μM human apo-transferrin, read-out: minimum growth inhibition concentration (MIC)
[9] = ATCC700603, read-out: minimum growth inhibition concentration (MIC)
[10] = SR24, read-out: minimum growth inhibition concentration (MIC)
[11] = ATCCBAA196, read-out: minimum growth inhibition concentration (MIC)

Row | MIC [1, 5] | MIC [2, 6] | MIC (P. aeruginosa SR24; [7]) | MIC [4, 8] | MIC (A. baumannii SR24396) | SMILES | MIC [3] | MIC [1, 9] | MIC [2] | MIC (P. aeruginosa SR24; [10]) | MIC [4, 11]
1 |  |  |  | 8 µg/mL | ≤ 0.031 µg/mL | Nc1nc(/C(=N/OC[C@H](NC(=O)c2ccc(O)c(O)c2Cl)C(=O)[O-])C(=O)N[C@@H]2C(=O)N3C(C(=O)[O-])=C(Cn4ccc(=O)c(O)c4)CS[C@H]23)cs1.[Na+].[Na+] [Compound I-5] |  |  |  |  | 
2 | 1 µg/mL (≈ 1.27 µM) | 2 µg/mL (≈ 2.54 µM) | 0.25 µg/mL (≈ 0.317 µM) | 0.125 µg/mL (≈ 0.159 µM) |  | NCC[N+]1(CC2=C(C(=O)[O-])N3C(=O)[C@@H](NC(=O)/C(=N\OC(CNC(=O)c4ccc(O)c(O)c4Cl)C(=O)O)c4nc(N)sc4Cl)[C@H]3SC2)CCCC1 (stereo partly drawn) [Compound I-16] |  |  |  |  | 
3 | 0.5 µg/mL | 16 µg/mL | 0.5 µg/mL | 1 µg/mL |  | Nc1nc(/C(=N/OC(CNC(=O)c2ccc(O)c(O)c2Cl)C(=O)[O-])C(=O)N[C@@H]2C(=O)N3C(C(=O)[O-])=C(C[N+]45CCCC4CCC5)CS[C@H]23)cs1.[Na+] (stereo partly drawn) [Compound I-24] |  |  |  |  | 
4 | 1 µg/mL | 4 µg/mL | 0.5 µg/mL | 2 µg/mL |  | Nc1nc(/C(=N/OC(CNC(=O)c2ccc(O)c(O)c2Cl)C(=O)[O-])C(=O)N[C@@H]2C(=O)N3C(C(=O)[O-])=C(C[N+]4(CCNC(=O)CC[C@H](N)C(=O)O)CCCC4)CS[C@H]23)cs1.[Na+] (stereo partly drawn) [Compound I-25] |  |  |  |  | 
5 | 0.5 µg/mL | 4 µg/mL | 0.25 µg/mL | 2 µg/mL |  | Nc1nc(/C(=N/OC(CNC(=O)c2ccc(O)c(O)c2Cl)C(=O)[O-])C(=O)N[C@@H]2C(=O)N3C(C(=O)[O-])=C(C[N+]4(CCNC(=O)C[C@@H](N)CC(=O)O)CCCC4)CS[C@H]23)cs1.[Na+] (stereo partly drawn) [Compound I-27] |  |  |  |  | 
6 | 1 µg/mL | 8 µg/mL | 0.25 µg/mL | 0.5 µg/mL |  | Nc1nc(/C(=N/OC(CNC(=O)c2ccc(O)c(O)c2Cl)C(=O)[O-])C(=O)N[C@@H]2C(=O)N3C(C(=O)[O-])=C(C[N+]45CCCC4CCC5)CS[C@H]23)c(Cl)s1.[Na+] (stereo partly drawn) [Compound I-28] |  |  |  |  | 
7 | 2 µg/mL | 8 µg/mL | 0.25 µg/mL | 0.5 µg/mL |  | Nc1nc(/C(=N/OC(CNC(=O)c2ccc(O)c(O)c2Cl)C(=O)[O-])C(=O)N[C@@H]2C(=O)N3C(C(=O)[O-])=C(C[N+]4(CCNC(=O)C[C@@H](N)CC(=O)O)CCCC4)CS[C@H]23)c(Cl)s1.[Na+] (stereo partly drawn) [Compound I-30] |  |  |  |  | 

The next lines start with the molecule.

Row | SMILES | MIC [1, 5] | MIC [2, 6] | MIC (P. aeruginosa SR24; [7]) | MIC [4, 8] | MIC (A. baumannii SR24396) | MIC [3] | MIC [1, 9] | MIC [2] | MIC (P. aeruginosa SR24; [10]) | MIC [4, 11]
8 | C[N+]1(CC2=C(C(=O)[O-])N3C(=O)[C@@H](NC(=O)/C(=N\OC[C@H](NC(=O)c4ccc(O)c(O)c4Cl)C(=O)O)c4csc(N)n4)[C@H]3SC2)[C@@H]2CC[C@H]1C[C@@H](N)C2 (stereo partly drawn) [Compound I-1] | 2 µg/mL (≈ 2.57 µM) | 0.5 µg/mL (≈ 0.642 µM) | 0.125 µg/mL (≈ 0.16 µM) | 0.25 µg/mL (≈ 0.321 µM) | ≤ 0.031 µg/mL | 0.25 µg/mL (≈ 0.321 µM) |  |  |  | 
9 | NCC[N+]1(CC2=C(C(=O)[O-])N3C(=O)[C@@H](NC(=O)/C(=N\OC[C@H](NC(=O)c4ccc(O)c(O)c4Cl)C(=O)O)c4csc(N)n4)[C@H]3SC2)CCCC1 [Compound I-2] | 4 µg/mL (≈ 5.31 µM) | 0.25 µg/mL (≈ 0.332 µM) | 0.125 µg/mL (≈ 0.166 µM) | 0.25 µg/mL (≈ 0.332 µM) | 0.063 µg/mL (≈ 0.0836 µM) | 0.125 µg/mL (≈ 0.166 µM) |  |  |  | 
10 | Nc1nc(/C(=N/OC[C@H](NC(=O)c2ccc(O)c(O)c2Cl)C(=O)[O-])C(=O)N[C@@H]2C(=O)N3C(C(=O)[O-])=C(C[n+]4cccc5c4CCC5)CS[C@H]23)cs1.[Na+] [Compound I-3] |  | 4 µg/mL | 0.25 µg/mL | 1 µg/mL | 0.125 µg/mL | 1 µg/mL |  |  |  | 
11 | CC1(C)CCc2ccc[n+](CC3=C(C(=O)[O-])N4C(=O)[C@@H](NC(=O)/C(=N\OC[C@H](NC(=O)c5ccc(O)c(O)c5Cl)C(=O)[O-])c5csc(N)n5)[C@H]4SC3)c21.[Na+] [Compound I-4] |  |  | 0.125 µg/mL | 0.5 µg/mL |  |  |  |  |  | 
12 | C[N+]1(CC2=C(C(=O)[O-])N3C(=O)[C@@H](NC(=O)/C(=N\OC(CNC(=O)c4ccc(O)c(O)c4Cl)C(=O)[O-])c4csc(N)n4)[C@H]3SC2)[C@@H]2CCC[C@H]1CC2.[Na+] (stereo partly drawn) [Compound I-10] |  |  |  |  |  |  | 0.5 µg/mL | 2 µg/mL | 0.25 µg/mL | 1 µg/mL
13 | C[N+]1(CC2=C(C(=O)[O-])N3C(=O)[C@@H](NC(=O)/C(=N\O[C@@H](CNC(=O)c4ccc(O)c(O)c4Cl)C(=O)[O-])c4csc(N)n4)[C@H]3SC2)CC2CCCC2C1.[Na+] (stereo partly drawn) [Compound I-11] | 4 µg/mL | 4 µg/mL | 0.25 µg/mL | 1 µg/mL |  |  |  |  |  | 
14 | Nc1nc(/C(=N/O[C@@H](CNC(=O)c2ccc(O)c(O)c2Cl)C(=O)[O-])C(=O)N[C@@H]2C(=O)N3C(C(=O)[O-])=C(C[N+]45CCC(CNC(=O)CC[C@H](N)C(=O)O)(CC4)CC5)CS[C@H]23)cs1.[Na+] [Compound I-12] | 1 µg/mL | 4 µg/mL | 0.25 µg/mL | 2 µg/mL |  |  |  |  |  | 
15 | CC1(C)CCc2ccc[n+](CC3=C(C(=O)[O-])N4C(=O)[C@@H](NC(=O)/C(=N\O[C@@H](CNC(=O)c5ccc(O)c(O)c5Cl)C(=O)[O-])c5csc(N)n5)[C@H]4SC3)c21.[Na+] [Compound I-14] | 1 µg/mL |  | 0.5 µg/mL | 0.5 µg/mL |  |  |  |  |  | 
16 | Nc1nc(/C(=N/OC(CNC(=O)c2ccc(O)c(O)c2Cl)C(=O)[O-])C(=O)N[C@@H]2C(=O)N3C(C(=O)[O-])=C(C[N+]45CCC(CC4)CC5)CS[C@H]23)c(Cl)s1.[Na+] (stereo partly drawn) [Compound I-15] | 1 µg/mL | 4 µg/mL | 0.25 µg/mL | 1 µg/mL |  |  |  |  |  | 
17 | Nc1nc(/C(=N/OC(CNC(=O)c2ccc(O)c(O)c2Cl)C(=O)[O-])C(=O)N[C@@H]2C(=O)N3C(C(=O)[O-])=C(C[N+]45CCC(CC4)CC5)CS[C@H]23)ns1.[Na+] (stereo partly drawn) [Compound I-17] | 8 µg/mL |  | 0.25 µg/mL | 4 µg/mL |  |  |  |  |  | 
18 | NCC[N+]1(CC2=C(C(=O)[O-])N3C(=O)[C@@H](NC(=O)/C(=N\OCc4ccc(O)c(O)c4C(=O)O)c4csc(N)n4)[C@H]3SC2)CCCC1 [Compound I-19] |  |  | 0.5 µg/mL (≈ 0.756 µM) | 8 µg/mL (≈ 12.1 µM) |  |  |  |  |  | 
19 | CC(C)(O/N=C(\C(=O)N[C@@H]1C(=O)N2C(C(=O)[O-])=C(C[N@+]3(C)[C@@H]4CC[C@H]3C[C@@H](N)C4)CS[C@H]12)c1ccc(O)c(O)c1Cl)C(=O)O [Compound I-20] |  |  |  | 2 µg/mL (≈ 3.07 µM) |  | 4 µg/mL (≈ 6.13 µM) |  |  |  | 
20 | C[N+]1(CC2=C(C(=O)[O-])N3C(=O)[C@@H](NC(=O)/C(=N\OC(CNC(=O)c4ccc(O)c(O)c4Cl)C(=O)[O-])c4csc(N)n4)[C@H]3SC2)[C@@H]2CC[C@H]1C[C@@H](NC(=O)CC[C@H](N)C(=O)O)C2.[Na+] (stereo partly drawn) [Compound I-26] |  |  |  |  |  |  | 1 µg/mL | 4 µg/mL | 1 µg/mL | 1 µg/mL
21 | Nc1nc(/C(=N/OC(CNC(=O)c2ccc(O)c(O)c2Cl)C(=O)[O-])C(=O)N[C@@H]2C(=O)N3C(C(=O)[O-])=C(C[N+]4(CCNC(=O)CC[C@H](N)C(=O)O)CCCC4)CS[C@H]23)c(Cl)s1.[Na+] (stereo partly drawn) [Compound I-29] | 1 µg/mL | 2 µg/mL | 0.5 µg/mL | 0.5 µg/mL |  |  |  |  |  | 
22 | NCC[N+]1(CC2=C(C(=O)[O-])N3C(=O)[C@@H](NC(=O)/C(=N\OC(C[C@H](NC(=O)c4ccc(O)c(O)c4Cl)C(=O)[O-])C(=O)O)c4csc(N)n4)[C@H]3SC2)CCCC1.[Na+] (stereo partly drawn) [Compound I-31] | 0.25 µg/mL | 1 µg/mL | 0.5 µg/mL | 0.25 µg/mL |  |  |  |  |  | 
23 | Nc1nc(/C(=N/OC(C[C@H](NC(=O)c2ccc(O)c(O)c2Cl)C(=O)[O-])C(=O)[O-])C(=O)N[C@@H]2C(=O)N3C(C(=O)[O-])=C(C[N+]4(CCNC(=O)CC[C@H](N)C(=O)O)CCCC4)CS[C@H]23)cs1.[Na+].[Na+] (stereo partly drawn) [Compound I-32] | 1 µg/mL | 2 µg/mL | 0.25 µg/mL | 0.5 µg/mL |  |  |  |  |  | 
